According to patent US20230286816A1, “LITHIATED SILICON” (KING'S COLLEGE LONDON, priority 2020, published 2023):

Test system: Wnt/β-catenin cell signalling pathway (downstream target gene Axin2)
Experiment: Axin2 expression (qPCR) in cells in medium conditioned with particles
Type: cell-based
Settings: 25 mM LiCl, 17IA4 cells
Method: Biological activity of released lithium was measured by monitoring activation of Wnt/β-catenin cell signalling pathway by measuring the expression of the pathway's well-known downstream target gene Axin2. The experiment was done with cell medium conditioned with corresponding batch of nanoparticles. Known amounts of LipSi nanoparticles were pelleted with a centrifuge and sterile supernatant was removed. Nanoparticles were dried under tissue culture hood. Cell medium (αMEM supplemented with 10% FBS, 1% antibiotic/antimycotic solution and 25 mM HEPES) was added onto pellet and particles were redispersed with ultrasound. Concentrations of the particles were 0.8 mg/ml (FIG. 6a) and 1.6 mg/ml (FIG. 6b). Vials were incubated in thermoshaker at 37° C. for four days. Particles were centrifuged down and supernatant was collected under sterile conditions. Conditioned medium (supernatant) was filtered with 0.22 μm syringe filter.
20,000 cells/cm^2 of mesenchymal cells (17IA4) were seeded onto 24 well plate. Cells were incubated approximately for 24 hours until 80% confluent and the normal medium was changed to conditioned. Cells were incubated (37° C., 5% CO2) in conditioned medium for 24 h. […] Reported fold changes represent Axin2 expression in the sample compared to Axin2 expression in medium and they are calculated with ΔΔCt method as known in the art.

Structure (SMILES): [Cl-].[Li+] [LiCl, lithium chloride]
- increase of Axin2 expression compared to medium (experiment of FIG. 6a (with SS9)): 3.2 fold
- increase of Axin2 expression compared to medium (experiment of FIG. 6b (with SS19)): 2.6 fold
